Measured values from patent US5223486A, “Inhibition of cancer procoagulant” (University Research Corporation, priority 1991, dated 1993).
Read-outs that look alike come from different tables or passages of the source. Where a SMILES comes first, the peptide text is derived from it. [ ]: non-standard residue; d: D form. The star is where a group is joined. ξ: configuration not given here. ξF = NC(Cc1ccccc1)C(=O)O; Cbz = O=C(OCc1ccccc1)*; ξV = CC(C)C(N)C(=O)O; CHN2 = [N-]=[N+]=C*; ξP = O=C(O)C1CCCN1; tBu = CC(C)(C)*

Legend:
[1] = system: cathepsin L; conditions: cathepsin B from rat and human; substrate Z-Phe-Arg-4-methyl-7-coumarylamide; cited from earlier work
[2] = target: T1, rabbit brain thromboplastin, a tissue factor (TF) standard (Oryctolagus cuniculus, UniProt P24055); test: one-stage plasma recalcification clotting time assay, TF control procoagulant; type: biochemical; conditions: 30 min at 25° C.; for inhibition of TF: 200 μM peptidyl diazomethyl ketone; for enhancement of TF activity (negative inhibition): 400 μM peptidyl sulfonium salt
T1 construct: rabbit brain thromboplastin, a tissue factor (TF) standard; purchased Sigma Chemical Co. (St. Louis, MO); host or cells: rabbit brain
T1 sequence (P24055 33-292): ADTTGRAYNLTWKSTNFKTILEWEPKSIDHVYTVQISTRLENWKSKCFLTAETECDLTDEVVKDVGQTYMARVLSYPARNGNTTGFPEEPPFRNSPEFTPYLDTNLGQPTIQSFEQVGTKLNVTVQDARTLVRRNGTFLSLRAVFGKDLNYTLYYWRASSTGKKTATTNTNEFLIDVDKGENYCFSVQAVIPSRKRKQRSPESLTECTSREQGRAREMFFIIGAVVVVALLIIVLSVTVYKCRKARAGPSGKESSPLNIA
Description: The procoagulant activity of the samples and the controls was measured in a one-stage plasma recalcification clotting time assay using a model 202A clot timer (Heller Laboratories, Santa Rose, CA). […] If the volume of the sample was too small, 0.05 ml of the sample was used with proportional reduction in the volume of the other reagents. […] These dilutions of RVV were used to calibrate the assay plasma and to verify linearity of the clotting times over the range of procoagulant activity.
(§1) The procoagulant activity of the samples was expressed as clotting time in seconds or as the percent activity, calculated as the percent reduction of clotting time (CT) from the corresponding buffer blank [(blank time (sec)-sample clotting time (sec))/ blank time (sec)]×100. The percent inhibition of the control and experimental procoagulants by the peptidyl diazomethyl ketone and peptidyl sulfonium salt inhibitors was expressed as the percent increase in the clotting time compared with the uninhibited sample [(inhibited CT-uninhibited CT)/uninhibited CT]×100.
(§2) Papain, a factor X activator and cysteine proteinase standard, RVV (Russell's viper venom) and rabbit brain thromboplastin, a tissue factor (TF) standard, were purchased from Sigma Chemical Co. (St. Louis, MO). To determine the effect of the peptidyl diazomethyl ketone and peptidyl sulfonium salt inhibitors on CP, the control procoagulants (Papain, RVV and TF), and the assay plasma system, the procoagulant activity of the samples and controls was analyzed with and without the addition of different concentrations of the inhibitors. […] Peptidyl diazomethyl ketone inhibitors were incubated with the procoagulant samples at a final concentration of 400 μM, 200 μM, 100 μM, 10 μM and 1 μM. Peptidyl sulfonium salt inhibitors were incubated with the samples at a final concentration of 800 μM, as well as the same concentrations as the diazomethyl ketones. At the end of the inhibition incubation, each sample was analyzed in the coagulation assay.
Each CP or control sample was adjusted to a concentration such that the procoagulant activity reduced the clotting time of the blank assay plasma from 10% to 30%, within the linear range of the assay (Gordon et al. (1979) J. Natl. Cancer Inst. 62:773-776).

[3] = system: RVV (Russell's viper venom); test: one-stage plasma recalcification clotting time assay, RVV control procoagulant; type: biochemical; conditions: 30 min at 25° C.; for percent inhibition of RVV (negative = slight activation): 200 μM peptidyl diazomethyl ketone; for effect on activity of RVV: 400 μM peptidyl sulfonium salt
Description: (§3) If the volume of the sample was too small, 0.05 ml of the sample was used with proportional reduction in the volume of the other reagents. […] These dilutions of RVV were used to calibrate the assay plasma and to verify linearity of the clotting times over the range of procoagulant activity.
as §1, §2

[4] = system: isolated rat hepatocytes; conditions: 10^-5 M; cited from earlier work
[5] = target: T2, papain (Carica papaya, UniProt P00784); type: biochemical; conditions: 30 min at 25° C.
T2 construct: purchased Sigma Chemical Co. (St. Louis, MO)
T2 sequence (P00784 134-345): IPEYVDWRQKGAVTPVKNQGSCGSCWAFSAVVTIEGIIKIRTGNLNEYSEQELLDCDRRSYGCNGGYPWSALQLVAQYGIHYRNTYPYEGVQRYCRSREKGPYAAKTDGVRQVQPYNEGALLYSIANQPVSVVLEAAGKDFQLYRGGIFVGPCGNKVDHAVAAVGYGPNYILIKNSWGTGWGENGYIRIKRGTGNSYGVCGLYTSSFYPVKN
Description: as §3, §1, §2

[6] = system: cancer procoagulant (CP); test: one-stage plasma recalcification clotting time assay, inhibition of CP procoagulant activity; type: biochemical, rabbit; conditions: for percent inhibition of CP: 30 min at 25° C.
[7] = target: clostripain (Hathewaya histolytica, UniProt P09870); conditions: cited from earlier work
Chain of clostripain (P09870 191-526): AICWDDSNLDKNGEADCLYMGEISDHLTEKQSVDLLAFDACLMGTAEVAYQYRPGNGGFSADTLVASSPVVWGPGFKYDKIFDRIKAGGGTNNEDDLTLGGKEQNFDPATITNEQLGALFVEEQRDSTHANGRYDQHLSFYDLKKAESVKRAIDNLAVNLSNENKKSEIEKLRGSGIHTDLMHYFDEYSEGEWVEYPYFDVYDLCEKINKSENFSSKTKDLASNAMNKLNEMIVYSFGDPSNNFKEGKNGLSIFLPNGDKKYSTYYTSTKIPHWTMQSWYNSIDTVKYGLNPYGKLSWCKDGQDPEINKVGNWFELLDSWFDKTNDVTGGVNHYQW
Chain of clostripain (P09870 51-181): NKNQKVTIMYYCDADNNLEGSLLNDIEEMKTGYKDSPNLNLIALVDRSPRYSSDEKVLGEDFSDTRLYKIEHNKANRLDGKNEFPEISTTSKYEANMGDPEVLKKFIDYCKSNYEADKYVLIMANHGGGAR

[8] = system: control procoagulants (TF, RVV and Papain); test: effect on the coagulation controls and the assay plasma; type: biochemical; conditions: compared with D1-D3 results of FIG. 1
Description: The procoagulant activity of the samples and the controls was measured in a one-stage plasma recalcification clotting time assay using a model 202A clot timer (Heller Laboratories, Santa Rose, CA). […]. If the volume of the sample was too small, 0.05 ml of the sample was used with proportional reduction in the volume of the other reagents. […]. These dilutions of RVV were used to calibrate the assay plasma and to verify linearity of the clotting times over the range of procoagulant activity.
as §1
Papain, a factor X activator and cysteine proteinase standard, RVV (Russell's viper venom) and rabbit brain thromboplastin, a tissue factor (TF) standard, were purchased from Sigma Chemical Co. (St. Louis, MO). To determine the effect of the peptidyl diazomethyl ketone and peptidyl sulfonium salt inhibitors on CP, the control procoagulants (Papain, RVV and TF), and the assay plasma system, the procoagulant activity of the samples and controls was analyzed with and without the addition of different concentrations of the inhibitors. […]; there was no effect of these solvents on the assay plasma activity. Preliminary experiments evaluated the time (15, 30 and 50 min) and temperature (25° C. and 37° C.) of the inhibition reaction; 30 min at 25° C. was selected as the optimum conditions and was used for the subsequent studies. […] At the end of the inhibition incubation, each sample was analyzed in the coagulation assay. […]

[9] = system: nonsmall cell lung cancer; conditions: patients with nonsmall cell lung cancer limited to one hemithorax; cited from earlier work
[10] = system: small cell carcinoma of the lung; conditions: patients with small cell carcinoma of the lung; cited from earlier work
[11] = target: cathepsin B (Homo sapiens, UniProt P07858); conditions: cited from earlier work
[12] = target: cathepsin L (Homo sapiens, UniProt P07711); conditions: cited from earlier work
Chain of cathepsin L (Homo sapiens, UniProt P07711) (P07711 114-333, species assumed): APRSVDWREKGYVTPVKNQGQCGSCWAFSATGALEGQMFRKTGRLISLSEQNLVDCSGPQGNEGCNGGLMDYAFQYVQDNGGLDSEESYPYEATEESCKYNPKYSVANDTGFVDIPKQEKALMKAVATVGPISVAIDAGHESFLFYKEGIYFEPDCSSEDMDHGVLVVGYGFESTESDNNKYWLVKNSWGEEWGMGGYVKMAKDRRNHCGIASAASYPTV

[13] = system: cancer procoagulant (CP); type: biochemical, human
Description: Fresh human placenta was obtained from the delivery deck, the amnion-chorion membranes were removed from the placental tissue and extracted in 3 to 4 changes of 20 mM veronal buffer (pH 7.4) as described in Gordon et al. (1985) Blood 66:1261-1265. The extracts were purified over an anti-Cp antibody affinity column. The purified CP sample was assayed for procoagulant activity by measuring clotting time of normal and factor VII deficient citrated plasma. […] To assure that there was no tissue factor-factor VIIa activity in the preparation, 5 μl (1.3 mg/ml) of rabbit polyclonal anti-tissue factor antibody was added to the sample and incubated for 30 min. at 25° C.

C[C@H](NC(=O)[C@H](Cc1ccccc1)NC(=O)OCc1ccccc1)C(=O)C=[N+]=[N-] [D1, Z-Phe-Ala diazomethyl ketone]
affinity for cathepsin L relative to cathepsin B [1]: about 2000 fold | inhibition of TF [2]: no significant inhibition | percent inhibition of RVV (negative = slight activation) [3]: -10% to -13% | inhibition of protein synthesis [4]: 21% | percent inhibition of papain ([5]; 100 μM inhibitor): 85% | percent inhibition of papain ([5]; 200 μM inhibitor): 97% | percent inhibition of CP ([6]; 100 μM inhibitor): 68% | inhibition of CP by D1 relative to S1 (times greater) ([6]; same concentration (100 μM), same peptide): ~3 times | reactivity toward clostripain [7]: absolutely inert

[N-]=[N+]=CC(=O)CNC(=O)C(Cc1ccccc1)NC(=O)OCc1ccccc1 (stereo not shown) [D2, Z-Phe-Gly diazomethyl ketone] (Cbz-[ξF]-Gly-CHN2)
inhibition of TF [2]: no significant inhibition | percent inhibition of RVV (negative = slight activation) [3]: -10% to -13% | percent inhibition of papain ([5]; 100 μM inhibitor): 88% | percent inhibition of papain ([5]; 200 μM inhibitor): 97% | percent inhibition of CP ([6]; 100 μM inhibitor): 97%

[N-]=[N+]=CC(=O)CNC(=O)C1CCCN1C(=O)OCc1ccccc1 (stereo not shown) [D3, Z-Pro-Gly diazomethyl ketone] (Cbz-[ξP]-Gly-CHN2)
inhibition of TF [2]: no significant inhibition | percent inhibition of RVV (negative = slight activation) [3]: -10% to -13% | percent inhibition of papain ([5]; 100 μM inhibitor): 15% | percent inhibition of papain ([5]; 200 μM inhibitor): 88%

CC(C)C(NC(=O)CNC(=O)CNC(=O)OCc1ccccc1)C(=O)C=[N+]=[N-] (stereo not drawn) [D4, Z-Gly-Gly-Val diazomethyl ketone] (Cbz-Gly-Gly-[ξV]-CHN2)
percent inhibition of papain ([5]; 100 μM inhibitor): 2% | effect on the coagulation controls and the assay plasma [8]: essentially the same results | percent inhibition of CP ([6]; 100 μM inhibitor): about 48%

CC(NC(=O)OCc1ccccc1)C(=O)NC(C)C(=O)N1CCCC1C(=O)C=[N+]=[N-] (stereo not drawn) [D5, Z-Ala-Ala-Pro diazomethyl ketone] (Cbz-Ala-Ala-Pro-CHN2; configuration not given here)
percent inhibition of papain ([5]; 100 μM inhibitor): 2% | effect on the coagulation controls and the assay plasma [8]: essentially the same results | percent inhibition of CP ([6]; 100 μM inhibitor): ~62%

CC(NC(=O)C(C)NC(=O)OCc1ccccc1)C(=O)C=[N+]=[N-] (stereo not shown) [D6, Z-Ala-Ala diazomethyl ketone]
percent inhibition of papain ([5]; 100 μM inhibitor): 31% | effect on the coagulation controls and the assay plasma [8]: essentially the same results | percent inhibition of CP ([6]; 100 μM inhibitor): 92%

OCCN(CCO)c1nc(N2CCCCC2)c2nc(N(CCO)CCO)ncc2n1 [RA-233, mopidamol]
survival [9]: statistically significant prolongation of survival

CC(=O)CC(c1ccccc1)c1c(O)c2ccccc2oc1=O (stereo not shown) [Warfarin]
survival [10]: significant improvement | time to first evidence disease progression [10]: significant prolongation

[N-]=[N+]=CC(=O)C(CCCCN)NC(=O)OCc1ccccc1 (stereo not shown) [Z-Lys diazomethyl ketone]
inhibition of cathepsin B [11]: powerful inhibitor

CC(C)(C)Oc1ccc(C[C@H](NC(=O)[C@H](Cc2ccccc2)NC(=O)OCc2ccccc2)C(=O)C=[N+]=[N-])cc1 [Z-Phe-Tyr(O-t-Bu) diazomethyl ketone] (Cbz-Phe-Tyr(tBu)-CHN2)
rate of inactivation of cathepsin L relative to cathepsin B [12]: 2.5×10^4

NC(=O)CI [iodacetamide, iodoacetamide]
inhibition of procoagulant activity of purified CP [13]: all the procoagulant activity was inhibited

HgCl2 [Hg^++]
inhibition of procoagulant activity of purified CP ([13]; 1 mM iodoacetamide in water, 0.1 mM HgCl2 in water): all the procoagulant activity was inhibited

Z-Phe-Ala-CH2 -S^+ (CH3)2 bromide [S1]
enhancement of TF activity (negative inhibition) [2]: 5% | effect on activity of RVV [3]: Neither S1 nor S2 affected the activity of RVV | percent inhibition of papain ([5]; 10 μM inhibitor): 55% | percent inhibition of papain ([5]; 100 μM inhibitor): completely inhibited | percent inhibition of papain ([5]; 200 μM inhibitor): completely inhibited | percent inhibition of CP ([6]; 10 μM inhibitor): no inhibition | percent inhibition of CP ([6]; 100 μM inhibitor): 26% | percent inhibition of CP ([6]; 200 μM inhibitor): 51% | percent inhibition of CP ([6]; 400 μM inhibitor): 62%

Z-Phe-Lys-CH2 -S^+ (CH3)2 bromide [S2]
enhancement of TF activity (negative inhibition) [2]: 8% | effect on activity of RVV [3]: Neither S1 nor S2 affected the activity of RVV | percent inhibition of papain ([5]; 10 μM inhibitor): 20% | percent inhibition of papain ([5]; 100 μM inhibitor): almost the same effect | percent inhibition of papain ([5]; 200 μM inhibitor): almost the same effect | percent inhibition of CP ([6]; 10 μM inhibitor): no inhibition | percent inhibition of CP ([6]; 100 μM inhibitor): 33% | percent inhibition of CP ([6]; 200 μM inhibitor): 54% | percent inhibition of CP ([6]; 400 μM inhibitor): 72%
